Results as given in patent US11224565B2, “N-acyldipeptide derivatives and their uses” (NeoStrata Company, Inc., priority 2011, dated 2022).
Where “and” joins values, the source holds several entries; their conditions need not be identical. Equal entries are not always repeated. Peptide text beside a SMILES is read from it.

Columns and labels:
Assay type in all cases: in vivo, human
forearm skin = test: Skin thickness of forearm by micrometer calipers after topical application; details: for appearance of treated left forearm at end of treatment: 1-3% (w/v) in WEP442 topically twice daily for 1-6 weeks as in the example, vehicle forearm still loose, thin and wrinkled; for increase in skin thickness of treated left forearm: 3% (w/v) in WEP442 topically twice daily, vehicle forearm no change
Method: In one of the studies related to skin changes associated with aging, skin thickness was measured by micrometer calipers as follows. The skin was grasped with a 2×6 cm metal hinge; the internal faces of which were coated with emery cloth to prevent slippage, and manually squeezed to threshold subject discomfort. Combined thickness of two whole-skin layers including thickness of the two hinge leaves was measured with micrometer calipers. Thickness of the two hinge leaves was subtracted to determine the actual thickness of two whole-skin layers. Triplicate measurements on treated sites were done and an average number was used for calculation of the skin thickness. In other studies, test sites of skin 17 mm in diameter were used, the circular sites were marked with permanent ink. Intervening control sites were also 17 mm in diameter. Thickness of skin of all sites was measured directly by means of an electronic digital caliper. In this instance the jaws of the caliper were opened to 17 mm, applied with pressure to the skin sites and then closed to firm tightness. Thickness of skin was then read off the screen of the calipers. Measurements of all sites were made in triplicates.

insect bites = test: Topical application to insect bite lesions (itch, erythema, inflammation)
Method: A subject, having intensive itch and erythema on their left arm from insect bites, topically applied 10% (w/w) N—Ac-L-Leu-Gly-NH2 cream as formulated in Example 3 on the involved lesions.
A subject had multiple lesions of insect bites (mosquitoes) over the face and arms with itch and inflammatory lesions of more than 1 cm in size. For testing purposes, the subject divided the lesions into three groups: the first group was treated with vehicle control, the second and third groups were treated with active compositions. The subject topically applied twice daily 0.5% (w/v) N—Ac-L-Val-L-Ala-NH2 solution in WEP442, pH 5.9 on the lesions of the second group, and 0.5% (w/v) N—Ac-L-Tyr-L-Tyr-NH2 solution in WEP442, pH 6.7 (Example 5) on the lesions of the third group. […] The lesions in the second and third groups also started to improve over the next few days. At the end of three days, while there was no discernible change in the lesions treated with vehicle control in the first group, the lesions in the second and third groups had 90-100% improvement with nearly complete disappearance of inflammatory lesions.
A subject had multiple lesions of chigger bites (grass mites) over the legs with intensive itch and red inflammatory lesions. The subject topically applied twice daily 0.5% (w/v) N—Ac-L-Val-L-Ala-NH2 solution in WEP442, pH 6.7 (Example 5) on the lesions. […] The lesions on the legs had 100% improvement as judged by clinical evaluation.
In another embodiment, the volunteer subject topically applied the test compositions containing N-acyldipeptide derivatives of the present invention on involved skin or lesions once or twice daily for several weeks or until the involved lesions completely cleared and clinically changed to normal skin. As a control study, the subject also topically applied a vehicle control composition on the involved skin or lesions twice daily for the same period.

[1] = system: pain and inflammation of joints and muscles; test: Topical administration for pain and inflammation of sprained leg, shoulder or muscles
Method: A typical example of a topical administration for systemic therapeutic effects was carried out as follows. A subject, having sprained their left leg near the knee with inflammation for several weeks had severe pain each time walking. Massage therapy and conventional treatments provided only a temporary relief. The subject topically applied and rubbed 0.4% (w/v) N—Ac-L-Val-L-Ala-NH2 in WEP442, pH 5.8 as prepared in Example 5 onto the left thigh and calf sites of skin for 30 seconds at night.
The subject topically applied twice daily 0.5% (w/v) N—Ac-L-Tyr-L-Tyr-NH2 in WEP442 solution, pH 6.7 as prepared in Example 5. […] At the end of 5 days, the right shoulder had 90% improvement as determined by clinical evaluation.
The subject topically applied twice daily 0.5% (w/v) N—Ac-L-Val-L-Ala-NH2 in WEP442 solution, pH 6.7 as prepared in Example 5 to the affected area of skin. The pain diminished with less inflammation over the next day.
In yet another embodiment, the volunteer subject topically applied once or twice daily the test compositions containing N-acyldipeptide derivatives of the present invention on the skin site above arthritic joints or painful muscles to provide therapeutic effects for the systemic disorders via topical administration.

stretch marks = test: Topical treatment of stretch marks; details: twice daily, four weeks; 0.5% (w/w) N-Ac-L-Val-L-Ala-NH2 cream on one lesion, 0.5% (w/v) N-Ac-L-Tyr-L-Tyr-NH2 in WEP442 pH 6.7 on the other
Text: Stretch marks, known as striae, are visible linear scars caused by changes in collagen fibers and over stretching of the skin. Stretch marks are quite common in most adult women, and they readily develop at puberty or during pregnancy. They are also very common in obese people with sudden loss of weight. At present, there is no cure or effective treatment.
A subject, having lost a total of about 60 pounds from overweight over the last 10 years, developed multiple lesions of stretch marks over the body. The subject selected two separate lesions of stretch marks, and topically applied twice daily 0.5% (w/w) N—Ac-L-Val-L-Ala-NH2 cream (Example 2) on one lesion and 0.5% (w/v) N—Ac-L-Tyr-L-Tyr-NH2 solution in WEP442, pH 6.7 (Example 5) on the other lesion with untreated lesions of stretch marks as a control.
At the end of four weeks, the fine lines of stretch marks started to disappear, and deeper lines became less deep. The treated lesions had approximately 25% improvement as judged by clinical evaluation.

[2] = system: fungal infections of two toe nails; test: Topical treatment of fungal infections of toe nails; details: twice daily, after several weeks; 0.5% (w/v) N-Ac-L-Tyr-L-Tyr-NH2 in WEP442 pH 6.7 on one nail, 0.5% (w/v) N-Ac-L-Tyr-L-Tyr-NHNHAc in WEP442 pH 5.5 on another
Text: A subject had fungal infections of two toe nails for many years. Topical treatments with clotrimazole and salicylic acid with or without glycolic acid had not been successful, as shown by the persistent appearance of white and sandy nail plates. The subject topically applied twice daily to one infected nail plate, 0.5% (w/v) N—Ac-L-Tyr-L-Tyr-NH2 in WEP442, pH 6.7 (Example 5), and to another infected nail plate, 0.5% (w/v) N—Ac-L-Tyr-L-Tyr-NHNHAc in WEP442, pH 5.5 (Example 5) for several months. […] Continued topical applications of the formulations should eradicate the nail infections, and the toe nails should start to grow normally.

[3] = mosquito bites face and arms, twice daily, 0.5% (w/v) N-Ac-L-Val-L-Ala-NH2 in WEP442 pH 5.9 (second group), 0.5% (w/v) N-Ac-L-Tyr-L-Tyr-NH2 in WEP442 pH 6.7 (third group)

| SMILES | appearance of treated left forearm at end of treatment (forearm skin) | increase in skin thickness of treated left forearm (forearm skin; after 2 weeks) | increase in skin thickness of treated left forearm (forearm skin; after 3 weeks) | increase in skin thickness of treated left forearm (forearm skin; after 4 weeks) | itch after topical application (insect bites; [3]) | pain of sprained right shoulder ([1]; 0.5% (w/v) in WEP442 pH 6.7 topically twice daily, after three days) | improvement of right shoulder by clinical evaluation ([1]; 0.5% (w/v) in WEP442 pH 6.7 topically twice daily, end of 5 days) | improvement of treated stretch mark lesions as judged by clinical evaluation (stretch marks) | white and sandy appearance of infected nail plates [2] | itch after topical application (insect bites; 0.5% (w/v) in WEP442 pH 6.7 twice daily, chigger bites on legs) | improvement of lesions as judged by clinical evaluation (insect bites; 0.5% (w/v) in WEP442 pH 6.7 twice daily, chigger bites on legs, end of five days) | pain on walking ([1]; 0.4% (w/v) in WEP442 pH 5.8 rubbed onto left thigh and calf at night, sprained leg, next morning) | improvement of left leg by clinical evaluation ([1]; 0.4% (w/v) in WEP442 pH 5.8 rubbed onto left thigh and calf for 30 seconds at night, sprained leg, next morning) | muscle pain and inflammation in both arms ([1]; 0.5% (w/v) in WEP442 pH 6.7 topically twice daily, end of five days) | improvement of arms by clinical evaluation ([1]; 0.5% (w/v) in WEP442 pH 6.7 topically twice daily, muscle pain, end of five days) | increase in skin thickness of treated left forearm (forearm skin; after 6 weeks) | increase in skin thickness of treated left forearm (forearm skin; after one week) |
| --- | --- | --- | --- | --- | --- | --- | --- | --- | --- | --- | --- | --- | --- | --- | --- | --- | --- |
| CC(=O)N[C@@H](Cc1ccc(O)cc1)C(=O)N[C@@H](Cc1ccc(O)cc1)C(N)=O [N-Ac-L-Tyr-L-Tyr-NH2] (Ac-Tyr-Tyr-NH2) | more firm, smooth, plump, and less wrinkled when lifted | 13% and 19% | 14% | 17% and 21% | stopped completely within a few minutes | disappeared completely | 90% | approximately 25% | started to change gradually | – | – | – | – | – | – | – | – |
| CC(=O)N[C@H](C(=O)N[C@@H](C)C(N)=O)C(C)C [N-Ac-L-Val-L-Ala-NH2] (Ac-Val-Ala-NH2) | – | – | – | – | stopped completely within a few minutes | – | – | approximately 25% | – | stopped within a few minutes | 100% | could walk slowly without feeling any pain | approximately 75% | disappeared completely | 95%-100% | – | – |
| CC(=O)NNC(=O)[C@H](Cc1ccc(O)cc1)NC(=O)[C@H](Cc1ccc(O)cc1)NC(C)=O [N-Ac-L-Tyr-L-Tyr-NHNHAc] | more firm, smooth, plump, and less wrinkled when lifted | 7% | 32% | – | – | – | – | – | started to change gradually | – | – | – | – | – | – | 23% | 21% |
